Data on five compounds can be found in patent US10138275B2, “Crystalline powder of cyclic peptide compound, preparation method for same, and uses thereof” (SHANGHAI TECHWELL BIOPHARMACEUTICAL CO., LTD, priority 2014, dated 2018).

Data set [1] is described as follows: Particle size distribution (d10, d50) by Malvern particle size analyzer / laser diffraction. The format is physicochemical. Conditions: for d10, particle size of the crystalline powder / d50, particle size of the crystalline powder: after drying. Here is the method:
[…] Wherein, d10 and d50 are means known for indicating the particle size distribution. d50 refers to a value of particle size, and the size of 50 vol/% of particles is smaller than said value. D10 refers to a value of particle size, and the size of 10 vol/% of particles is smaller than said value. The preferred method for determining d10 and d50 is laser diffraction, d50 of the crystalline powder of the compound of formula I according to the present invention is determined as 10-100 um, and d10 is determined as 1-9 um. Preferably, d50 of the crystalline powder is 20-50 um, and d10 thereof is 1-5 um. Before solid-liquid separation, d50 of the crystalline powder of the compound of formula I is 10-100 um, and d10 thereof is 1-9 um. Preferably, d50 of the crystalline powder is 20-50 um, and d10 thereof is 3-6 um.

A short description of data set [2]: Bulk density of powder by cylinder measurement. The data set is classed as physicochemical. Particulars: after drying. The method, then:
“Bulk density of powder” is a measurement standard for the relative importance of the interaction between microparticles by comparing the bulk density and tapped density of the powder. Methods for measuring bulk density of powder are known in the art; for example, it can be determined by cylinder measurement, volumetric measurement, and container measurement. Bulk density of the crystalline powder of the compound of formula I according to the present invention is determined as less than 0.7 g/mL, preferably less than 0.6 g/mL, most preferably less than 0.5 g/mL, by cylinder measurement.

Data set [3] in a line: Ratio of dry weight to wet weight (Dry/Wet) of filtered solids. The data set is classed as physicochemical. Particulars: wet solids weighed after filtration, before drying. From the text: As used herein, the term “Dry/Wet” and “ratio of dry weight to wet weight” can be used interchangeably, both of which refer to the ratio of the weight of a compound without solvent(s) to the weight of the compound with solvent(s). In the present invention, wet weight of crystals is obtained by filtering the crystallized solids until no noticeable droplet outflows and weighing the solids.

Data set [4] is described as follows: Filtration through a Buchner funnel until no noticeable droplet outflowed. The format is physicochemical. From the text: In this example, the precipitated solids from Examples 2-10 and Comparative Examples 1-3 were filtered through a Buchner funnel until no noticeable droplet outflowed, and the filtration processes were compared.
Data set [5] is described as follows: Vacuum-drying at 25° C. with a water system until no organic solvent detected by GC; purity by HPLC. The format is physicochemical. Particulars: for time Needed (for drying): 25° C., vacuum-drying with a water system until no organic solvent detected by GC; for Purity before drying / Purity after drying: HPLC; for Purity before drying: 5 g of solids; for Purity after drying: vacuum-dried at 25° C. with a water system until no organic solvent detected by GC. From the text:
High performance liquid chromatography (HPLC) is a common method for determining the purity of a compound, wherein a liquid is used as the mobile phase and a high-pressure transfusion system is used for pumping the mobile phase, such as single solvents with different polarities, a mixture of solvents at different proportions, or buffers, into a column packed with a stationary phase. Each component is separated in the column, and then enters into a detector for detection, thereby analyzing a sample. In the present invention, HPLC is used for determining the purity of the compound of formula I and studying the stability of a sample. Conditions of the HPLC method are listed as follows:
Analysis Column: YMC-ODS 250×4.6 mm, 5 μm;
Mobile phase: acetonitrile:phosphate buffer (pH 3.0)=45:70;
Column temperature: 35° C.;
Diluent: aqueous phosphate buffer;
Detection wavelength: 210 nm;
Gas chromatography (GC) used to separate and measure trace impurities in a compound is an accurate, qualitative and quantitative method of analysis. In the present invention, the content of organic solvents in the crystalline powder of the compound of formula I obtained in the present invention is measured by gas chromatography (GC).
5 g of solids were prepared according to the methods of Examples 2-10 and Comparative Examples 1-3 respectively, placed at 25° C., and vacuum-dried together with a water system until no organic solvent was detected through GC. The time for drying was compared, and the purity of the sample was analyzed.

The nature of data set [6]: Exposure of dried B82 crystal to the environment (moisture uptake, stability). The format is physicochemical. From the text: Before drying of the crystals, the content of solvent in the compound of formula I (Dry/Wet) was about 0.25, and a large amount of organic solvent was trapped in the crystal. To render the content of solvent in compliance with the requirements for active pharmaceutical ingredients (API), the drying temperature or the drying time has to be increased during the drying process. Such drying process, however, will increase the degradation product of the compound of formula I, seriously affecting the quality and stability of API.

For data set [7] the following is noted: Ohigashi et al. 2006, cited from earlier work.

Structures are written as SMILES. Starred links: 1 amine or outer side, 2 acyl side, 3 side chain; linkers in the order of their positions; H or OH if unused. Positions of bridges follow the written chain, without caps; N, C: chain ends. Non-standard residues stand in square brackets, D forms with d. Residues, ends and D or L forms follow the SMILES beside them. *: point of attachment. hTyr(3S-OH,4S-OH,3'-OSO3H) = N[C@H](C(=O)O)[C@H](O)[C@@H](O)c1ccc(O)c(OS(=O)(=O)O)c1; Orn(4R-OH,5R-OH) = O=C([C@H](C[C@@H](O)[C@@H](O)N[*:3])N[*:1])[*:2]; Pro(3S-OH,4S-Me) = C[C@H]1CN[C@H](C(=O)O)[C@H]1O; X1 = CCCCCOc1ccc(-c2cc(-c3ccc(C(=O)*)cc3)no2)cc1; Gln(3R-OH) = NC(=O)C[C@@H](O)[C@H](N)C(=O)O; Hyp = O=C(O)[C@@H]1C[C@@H](O)CN1

In the case of `CCCCCOc1ccc(-c2cc(-c3ccc(C(=O)N[C@H]4C[C@@H](O)[C@@H](O)NC(=O)[C@@H]5[C@@H](O)[C@@H](C)CN5C(=O)[C@H]([C@H](O)CC(N)=O)NC(=O)[C@H]([C@H](O)[C@@H](O)c5ccc(O)c(OS(=O)(=O)[O-])c5)NC(=O)[C@@H]5C[C@@H](O)CN5C(=O)[C@H]([C@@H](C)O)NC4=O)cc3)no2)cc1.[Na+]` [Comparative Example 1, reference compound] (X1-[Orn(4R-OH,5R-OH)]T[Hyp][hTyr(3S-OH,4S-OH,3'-OSO3H)][Gln(3R-OH)][Pro(3S-OH,4S-Me)]; lactam 1-C), the “d50 of the obtained crystals” value in data set [1] (B82-type crystal prepared per Example 1 of WO03/018615) is 0.2-1.0 um. Also, in data set [1], the “d10, particle size of the crystalline powder” value is 0.25 um and the “d50, particle size of the crystalline powder” value came out at 0.7 um. Moreover, the Bulk density in data set [2] is 0.85 g/mL. Besides, the Bulk density result in data set [2] (listed as B82-type crystals) was “about 0.8 g/mL”. The “ratio of dry weight to wet weight (Dry/Wet)” value (“ratio … (Dry/Wet)” for short) in data set [3] was 0.25. Further, the “ratio … (Dry/Wet)” value in data set [3] (listed as B82-type crystals) was “about 0.25”. This compound yielded a Time for filtration in data set [4] of 90 min. For the same compound, in data set [5], the “time Needed (for drying)” value is 25 h, the Purity before drying is recorded as 99.26% and the Purity after drying stood at 97.96%. For the same compound, in data set [6], the “moisture absorption when exposed to the environment” value is “inclined to absorb moisture” and the “stability when exposed to the environment” value is “poor stability”.
`CCCCCOc1ccc(-c2cc(-c3ccc(C(=O)N[C@H]4C[C@@H](O)[C@@H](O)NC(=O)[C@@H]5[C@@H](O)[C@@H](C)CN5C(=O)[C@H]([C@H](O)CC(N)=O)NC(=O)[C@H]([C@H](O)[C@@H](O)c5ccc(O)c(OS(=O)(=O)[O-])c5)NC(=O)[C@@H]5C[C@@H](O)CN5C(=O)[C@H]([C@@H](C)O)NC4=O)cc3)no2)cc1.[Na+]` [Comparative Example 2, reference compound] (X1-[Orn(4R-OH,5R-OH)]T[Hyp][hTyr(3S-OH,4S-OH,3'-OSO3H)][Gln(3R-OH)][Pro(3S-OH,4S-Me)]; lactam 1-C): the “ratio … (Dry/Wet)” value in data set [3] stood at 0.13. In addition, in data set [4], the Time for filtration worked out at 150 min. Moreover, in data set [5], the “time Needed (for drying)” value worked out at 30 h, the Purity before drying worked out at 98.82% and the Purity after drying worked out at 96.21%.
Taken in the same sequence, the figures for `CCCCCOc1ccc(-c2cc(-c3ccc(C(=O)N[C@H]4C[C@@H](O)[C@@H](O)NC(=O)[C@@H]5[C@@H](O)[C@@H](C)CN5C(=O)[C@H]([C@H](O)CC(N)=O)NC(=O)[C@H]([C@H](O)[C@@H](O)c5ccc(O)c(OS(=O)(=O)[O-])c5)NC(=O)[C@@H]5C[C@@H](O)CN5C(=O)[C@H]([C@@H](C)O)NC4=O)cc3)no2)cc1.[Na+]` [Comparative Example 3, reference compound] (X1-[Orn(4R-OH,5R-OH)]T[Hyp][hTyr(3S-OH,4S-OH,3'-OSO3H)][Gln(3R-OH)][Pro(3S-OH,4S-Me)]; lactam 1-C) were 0.1, 300 min, 32 h, 98.74% and 96.17%.
Take `CCCCCOc1ccc(-c2cc(-c3ccc(C(=O)N[C@H]4C[C@@H](O)[C@@H](O)NC(=O)[C@@H]5[C@@H](O)[C@@H](C)CN5C(=O)[C@H]([C@H](O)CC(N)=O)NC(=O)[C@H]([C@H](O)[C@@H](O)c5ccc(O)c(OS(=O)(=O)[O-])c5)NC(=O)[C@@H]5C[C@@H](O)CN5C(=O)[C@H]([C@@H](C)O)NC4=O)cc3)no2)cc1.[Na+]` [Example 10] (X1-[Orn(4R-OH,5R-OH)]T[Hyp][hTyr(3S-OH,4S-OH,3'-OSO3H)][Gln(3R-OH)][Pro(3S-OH,4S-Me)]; lactam 1-C): in data set [1], the “d10, particle size of the crystalline powder” value is listed as 8.3 um and the “d50, particle size of the crystalline powder” value was 100 um. The same compound came in with a Bulk density in data set [2] of 0.56 g/mL. Also, in data set [3], the “ratio … (Dry/Wet)” value was 0.63. Also, in data set [5], the “time Needed (for drying)” value was 9 h, the Purity before drying was 99.5% and the Purity after drying is given as 99.43%.
As to `CCCCCOc1ccc(-c2cc(-c3ccc(C(=O)N[C@H]4C[C@@H](O)[C@@H](O)NC(=O)[C@@H]5[C@@H](O)[C@@H](C)CN5C(=O)[C@H]([C@H](O)CC(N)=O)NC(=O)[C@H]([C@H](O)[C@@H](O)c5ccc(O)c(OS(=O)(=O)[O-])c5)NC(=O)[C@@H]5C[C@@H](O)CN5C(=O)[C@H]([C@@H](C)O)NC4=O)cc3)no2)cc1.[Na+]` [compound of formula I, 5-[(1S,2S)-2-[(3S,6S,9S,11R,15S,18S,20R,21R,24S,25S,26S)-3-[(R)-2-carbamoyl-1-hydroxyethyl]-11,20,21,25-tetrahydroxy-15-[(R)-1-hydroxyethyl]-26-methyl-2,5,8,14,17,23-hexaoxo-18-[4-[5-(4-pentoxyphenyl)isoxazol-3-yl]benzoylamino]-1,4,7,13,16,22-hexaazatricyclo[22.3.0.0.0^9,13]heptacosan-6-yl]-1,2-dihydroxyethyl]-2-hydroxy phenyl sulfate] (X1-[Orn(4R-OH,5R-OH)]T[Hyp][hTyr(3S-OH,4S-OH,3'-OSO3H)][Gln(3R-OH)][Pro(3S-OH,4S-Me)]; lactam 1-C), in data set [7] (amorphous precipitate before drying), the “content of solvent in the precipitate” value is “about 75%”. Further, the “Dry/Wet of the precipitate before drying” value in data set [7] (amorphous precipitate from acetone/ethyl acetate) is listed as 0.25.
